In patent publication US10440953B2, “Control of pests in maize by ginkgolides and bilobalide” (priority 2015, dated 2019):
Where two headings read alike, the source gives them in different places.

Legend:
Format in all cases: in vivo
Nezara viridula [1] = experiment: Foliar spray of maize plants, mortality of Nezara viridula (Example-1); details: for mortality at 100 ppm: Nezara viridula, foliar, 72 h
Experimental: Zea mays plants were grown to growth stage BBCH 12. The maize plants were then sprayed with 300 l/ha of aqueous compositions comprising either no component of the ginkgo tree, 300 ppm of ginkgolide A, or 100 ppm of bilobalide. The plants were then allowed to dry and subsequently infested with five insects (either adult, or 4th instar nymphs) of Nezara viridula. Insects were contained on the plant using mesh organza bags. Three replicates on different plants were made for each measurement. Three days after infestation, the number of live and dead insects was determined. The mean mortality values were gathered in Table D.

Nezara viridula [2] = experiment: Soil drench on corn, mortality of Nezara viridula (Example-2); details: soil drench 2.5 mg active ingredient per plant, infested 3DAT, measured 7DAT
Experimental: Ginkgolide A and Bilobalide were each dissolved in a solution of 50 wt % of acetone in water and applied to the soil of corn four days after planting at a rate of 2.5 mg of the active ingredient per plant. Prior to infestation the soil was covered with parafilm to prevent insect exposure to treated soil. Each plant was infested 3DAT with four 4th instar Nezara viridula insects. Insects were contained on the plant using organza fabric bags. Four replicates on different plants were made for each measurement. The mortality of the insects was measured 7DAT. The mean mortality values were gathered in Table E.

Euschistus heros [3] = experiment: Spray of Agrisure Viptera and Roundoup Ready 2 maize seedlings with bilobalide, control of Euschistus heros (Example-4); details: for Relative Efficacy 6DAI: Abbott's formula; for No of alive insects 6DAI: ten adult E. heros per plant
Experimental: (§1) Relative efficacy (E) values were calculated according to Abbot's formula E=[(C−G)/C]×100, wherein C is the percentage of alive insects in untreated controls, and G is the percentage of alive insects in plants treated with components of the ginkgo tree.
(§2) Agrisure™ Viptera and Roundoup Ready™ 2 Zea mays seedlings were sprayed with 1 ml of compositions comprising either no component of the ginkgo tree, or bilobalide at a concentration of 50, 100, or 150 ppm. Plants were allowed to dry and subsequently infested with ten adult insects of Euschistus heros. Three replicate measurement on different plants were made for each measurement. Six days after infestation (6DAI) number of live and dead insects was determined. The mean number of alive insects, as well as the relative efficacy values (E) according to Abbott's formula were gathered in Table G, wherein the number of alive insects in untreated controls (C) was the value of the same plant without the application of bilobalide.

Nezara viridula [4] = experiment: Corn seed treatment, damage protection against Nezara viridula (Example-3); details: 4th instar N. viridula, assessed 10DAT
Experimental: Ginkgolide A was dissolved in DMSO and applied to corn seeds at rates of 1.0 and 0.5 mg of Ginkgolide A per plant. One seed was planted per pot in a 1:1 mixture of North Carolina loamy sand:sand. Prior to infestation, soil was covered with parafilm to prevent insect exposure to treated soil. After emergence of the plants, each pot was infested with four 4th instar Nezara viridula insects. Insects were contained on the pots using organza fabric bags. Four replicates on different plants were made for each measurement. The mean damage protection of the corn plants was assessed 10DAT in comparison with untreated controls. For plant height, root mass, and root length, evaluation of the damage protection of the plants was carried out for each treatment as the increase from the infested solvent blank (SB) relative to the increase of the uninfested control from the infested solvent blank: (Treatment−Infested SB)/Uninfested SB−Infested SB)×100%. The results of the mean damage protection values were gathered in Table F.

Euschistus heros [5] = experiment: Spray of Agrisure Viptera and Roundoup Ready 2 maize seedlings with ginkgolide A, control of Euschistus heros (Example-5); details: for Relative Efficacy 3DAI: Abbott's formula; for No of alive insects 3DAI: ten adult E. heros per plant
Experimental: as §1, §2
Three days after infestation (3DAI) number of live and dead insects was determined. The mean number of alive insects, as well as the relative efficacy values (E) according to Abbott's formula were gathered in Table H, wherein the number of alive insects in untreated controls (C) was the value of the same plant without the application of ginkgolide A.

[6] = Agrisure Viptera maize, 50 ppm bilobalide
[7] = Agrisure Viptera maize, 100 ppm bilobalide
[8] = Agrisure Viptera maize, 150 ppm bilobalide
[9] = Roundoup Ready 2 maize, 50 ppm bilobalide
[10] = Roundoup Ready 2 maize, 100 ppm bilobalide
[11] = Roundoup Ready 2 maize, 150 ppm bilobalide
[12] = Agrisure Viptera maize, 10 ppm ginkgolide A
[13] = Agrisure Viptera maize, 250 ppm ginkgolide A
[14] = Roundoup Ready 2 maize, 10 ppm ginkgolide A
[15] = Roundoup Ready 2 maize, 250 ppm ginkgolide A

## CC(C)(C)[C@]1(O)C[C@@H]2OC(=O)C[C@@]23C(=O)O[C@@H]2OC(=O)[C@H](O)[C@]213 [Bilobalide, (3aS,5aR,8aS,9R,10aR)-9-tert-butyl-8,9-dihydroxydihydro-9H-furo[2,3-b]furo[3′,2′;2,3]cyclopenta[1,2-c]furan-2,4,7(3H,8H)-trione]
Nezara viridula [1]; read-out: Mortality of 4th instar nymphs
  mortality at 100 ppm: 84.6%
Nezara viridula [1]; read-out: Mortality of Adults
  mortality at 100 ppm: 33.3%
Nezara viridula [2]
  Mortality of 4th instar nymphs relative to untreated control: 85%
Euschistus heros [3]; [6]
  Relative Efficacy 6DAI: 92%
  No of alive insects 6DAI: 0.7
Euschistus heros [3]; [7]
  Relative Efficacy 6DAI: 96%
  No of alive insects 6DAI: 0.3
Euschistus heros [3]; [8]
  Relative Efficacy 6DAI: 100%
  No of alive insects 6DAI: 0.0
Euschistus heros [3]; [9]
  Relative Efficacy 6DAI: 83%
  No of alive insects 6DAI: 1.0
Euschistus heros [3]; [10]
  Relative Efficacy 6DAI: 89%
  No of alive insects 6DAI: 0.7
Euschistus heros [3]; [11]
  Relative Efficacy 6DAI: 94%
  No of alive insects 6DAI: 0.3

## C[C@@H]1C(=O)O[C@H]2C[C@@]34[C@H]5C[C@@H](C(C)(C)C)[C@]36[C@@H](OC(=O)[C@@H]6O)O[C@@]4(C(=O)O5)[C@]21O [Ginkgolide A]
Nezara viridula [1]; 300 ppm ginkgolide A, 300 l/ha spray on Zea mays BBCH 12, 4th instar N. viridula, three days after infestation
  Mortality of 4th instar nymphs: 61.5%
Nezara viridula [1]; 300 ppm ginkgolide A, 300 l/ha spray on Zea mays BBCH 12, adult N. viridula, three days after infestation
  Mortality of Adults: 20.0%
Nezara viridula [2]
  Mortality of 4th instar nymphs relative to untreated control: 100%
Nezara viridula [4]; seed treatment 0.5 mg/seed
  Mean damage protection: 64%
Nezara viridula [4]; seed treatment 1.0 mg/seed
  Mean damage protection: 77%
Euschistus heros [5]; [12]
  Relative Efficacy 3DAI: 38%
  No of alive insects 3DAI: 5.3
Euschistus heros [5]; [13]
  Relative Efficacy 3DAI: 35%
  No of alive insects 3DAI: 5.7
Euschistus heros [5]; [14]
  Relative Efficacy 3DAI: 14%
  No of alive insects 3DAI: 8.3
Euschistus heros [5]; [15]
  Relative Efficacy 3DAI: 21%
  No of alive insects 3DAI: 7.7
